Assay results reported in US9340530B2, “Preparation and use of bicyclic himbacine derivatives as PAR-1 receptor antagonists” (Merck, Sharp & Dohme Corp., priority 2012, dated 2016).

These molecules were tested against PAR1 (Homo sapiens (Human), UniProt P25116) (assay: Par-1 FLIPR assay (calcium, HEK 293 cells, PAR1 activating peptide)). Conditions: PAR1 selective receptor-activating peptide at 80% activation.
Assay type: cell-based
Experimental: HEK 293 Cells were grown in media containing DMEM, 10% FBS pen/strep/L-Glutamine and non-essential amino acids. The cells were plated in 384-well PDL coated plates at 12000 cells/well and incubated overnight at 37° C./5% CO2. Media was then removed from the cells, which were then incubated with buffer (Hank's containing HEPES and Chaps) containing FLIPR calcium-5 dye, made with buffer containing probenecid, for 60 minutes at 37° C. Varying concentrations of compound in a final concentration of 5% DMSO were then added to the cells and incubated at 25° C. for 30 minutes. […] The FLIPR reads at an excitation wavelength of 480 nm and an emission wavelength of 535 nm, and performs 60 scans over a 1-2 min reading time. The data were analyzed by taking the peak signal over a portion of the range of the 60 scans and dividing this signal by the minimum signal for that same range.

PAR1, sequence (P25116 22-425): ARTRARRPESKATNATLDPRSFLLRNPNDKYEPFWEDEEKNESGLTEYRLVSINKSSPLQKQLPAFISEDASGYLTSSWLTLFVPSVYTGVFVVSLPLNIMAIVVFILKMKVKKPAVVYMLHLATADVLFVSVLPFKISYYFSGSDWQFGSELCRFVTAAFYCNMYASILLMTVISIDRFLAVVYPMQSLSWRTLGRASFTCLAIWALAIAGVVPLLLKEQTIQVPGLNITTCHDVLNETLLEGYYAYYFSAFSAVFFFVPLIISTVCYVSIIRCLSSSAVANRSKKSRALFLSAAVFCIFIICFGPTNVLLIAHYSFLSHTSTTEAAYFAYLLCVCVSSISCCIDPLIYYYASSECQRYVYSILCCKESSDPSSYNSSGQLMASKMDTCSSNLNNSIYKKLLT

SMILES	IC50 [nM]
C[C@H]1OC(=O)C2CC(F)(F)[C@@H](C)[C@H](/C=C/c3ccc(-c4cccc(F)c4)cn3)C21 (stereo partly shown) [Example 2]	5.01
C[C@H]1OC(=O)[C@]2(O)CC(F)(F)[C@@H](C)[C@H](/C=C/c3ccc(-c4cccc(F)c4)cn3)[C@H]12 [Example 10]	8.1
C[C@H]1OC(=O)[C@]2(C(=O)NCCO)CC(F)(F)[C@@H](C)[C@H](/C=C/c3ccc(-c4cccc(F)c4)cn3)[C@H]12 [Example 13]	17
C[C@H]1OC(=O)[C@]2(NCC(O)CCl)CC(F)(F)[C@@H](C)[C@H](/C=C/c3ccc(-c4ccccc4C#N)cn3)[C@H]12 (stereo partly shown) [Example 52]	4.3
CC(=O)N[C@@]12CC(F)(F)[C@@H](C)[C@H](/C=C/c3ccc(-c4ccccc4C#N)cn3)[C@@H]1[C@@H](C)OC2=O [Example 53]	26
C[C@H]1OC(=O)[C@]2(NC(=O)NC3CCC3)CC(F)(F)[C@@H](C)[C@H](/C=C/c3ccc(-c4ccccc4C#N)cn3)[C@H]12 [Example 54]	7.1
C[C@H]1OC(=O)[C@]2(NC(=O)c3nccs3)CC(F)(F)[C@@H](C)[C@H](/C=C/c3ccc(-c4ccccc4C#N)cn3)[C@H]12 [Example 57]	2.8
C[C@H]1OC(=O)[C@]2(NC(=O)c3cccc(F)c3)CC(F)(F)[C@@H](C)[C@H](/C=C/c3ccc(-c4ccccc4C#N)cn3)[C@H]12 [Example 58]	3
C[C@H]1OC(=O)[C@]2(NC(=O)c3ccc(Cl)nc3)CC(F)(F)[C@@H](C)[C@H](/C=C/c3ccc(-c4ccccc4C#N)cn3)[C@H]12 [Example 59]	3
Cc1cc(C(=O)N[C@@]23CC(F)(F)[C@@H](C)[C@H](/C=C/c4ccc(-c5ccccc5C#N)cn4)[C@@H]2[C@@H](C)OC3=O)no1 [Example 60]	3.4
Cc1oncc1C(=O)N[C@@]12CC(F)(F)[C@@H](C)[C@H](/C=C/c3ccc(-c4ccccc4C#N)cn3)[C@@H]1[C@@H](C)OC2=O [Example 61]	33.3
C[C@@H]1[C@H](/C=C/c2ccc(-c3ccccc3C#N)cn2)[C@H]2[C@@H](C)OC(=O)[C@]2(NC(=O)c2ccc(F)cc2)CC1(F)F [Example 62]	1.7
C[C@H]1OC(=O)[C@]2(NC(=O)c3ccccc3)CC(F)(F)[C@@H](C)[C@H](/C=C/c3ccc(-c4ccccc4C#N)cn3)[C@H]12 [Example 63]	2.3
C[C@H]1OC(=O)[C@]2(NC(=O)c3ccc(C#N)cc3)CC(F)(F)[C@@H](C)[C@H](/C=C/c3ccc(-c4ccccc4C#N)cn3)[C@H]12 [Example 64]	2.9
C[C@H]1OC(=O)[C@]2(NC(=O)C3CC3)CC(F)(F)[C@@H](C)[C@H](/C=C/c3ccc(-c4ccccc4C#N)cn3)[C@H]12 [Example 66]	3.5
CC1[C@H](/C=C/c2ccc(-c3ccccc3C#N)cn2)C2[C@@H](C)OC(=O)[C@@]2(NC(=O)c2ccn(C)n2)CC1(F)F (stereo partly shown) [Example 67]	3.7
C[C@H]1OC(=O)[C@]2(S(C)(=O)=O)CC(F)(F)[C@@H](C)[C@H](/C=C/c3ccc(-c4ccccc4C#N)cn3)[C@H]12 [Example 70]	15.6
C[C@H]1OC(=O)[C@]2(Br)CC(F)(F)[C@@H](C)[C@H](/C=C/c3ccc(-c4ccccc4C#N)cn3)[C@H]12 [Example 71]	4.8
CO[C@@]12CC(F)(F)[C@@H](C)[C@H](/C=C/c3ccc(-c4ccccc4C#N)cn3)[C@@H]1[C@@H](C)OC2=O [Example 72]	2.5
Cc1cccc(-c2ccc(/C=C/[C@@H]3[C@@H]4[C@@H](C)OC(=O)[C@]4(N)CC(F)(F)[C@H]3C)nc2)c1C#N [Example 73]	3.3
C[C@H]1OC(=O)[C@]2(N)CC(F)(F)[C@@H](C)[C@H](/C=C/c3ccc(-c4ccccc4-c4nnn[nH]4)cn3)[C@H]12 [Example 74]	872
C[C@H]1OC(=O)[C@]2(CN)CC(F)(F)[C@@H](C)[C@H](/C=C/c3ccc(-c4ccccc4C#N)cn3)[C@H]12 [Example 76]	2.3

These molecules were tested against thrombin receptor (PAR-1 receptor) (Homo sapiens (Human), UniProt P25116) (assay: High throughput thrombin receptor radioligand binding assay ([3H]haTRAP, platelet membranes)). Conditions: [3H]haTRAP binding to platelet membranes.
Experimental: The following binding assays were used to determine the ability of the inventive compounds to inhibit the PAR-1 receptor.
A(pF-F)R(ChA)(hR)(I2—Y)—NH2 (1.03 mg) and 10% Pd/C (5.07 mg) were suspended in DMF (250 μl) and diisopropylethylamine (10 μL). The vessel was attached to the tritium line, frozen in liquid nitrogen and evacuated. Tritium gas (342 mCi) was then added to the flask, which was stirred at room temperature for 2 hours. At the completion of the reaction, the excess tritium was removed and the reacted peptide solution was diluted with DMF (0.5 ml) and filtered to remove the catalyst. The collected DMF solution of the crude peptide was diluted with water and freeze dried to remove the labile tritium. The solid peptide was redissolved in water and the freeze drying process repeated. The tritiated peptide ([^3H]haTRAP) was dissolved in 0.5 ml of 0.1% aqueous TFA and purified by HPLC using the following conditions: column, Vydac™ C18, 25 cm×9.4 mm I.D.; mobile phase, (A) 0.1% TFA in water, (B) 0.1% TFA in CH3CN; gradient, (A/B) from 100/0 to 40/60 over 30 min; flow rate, 5 ml/min; detection, UV at 215 nm. The radiochemical purity of [^3H]haTRAP was 99% as analyzed by HPLC. A batch of 14.9 mCi at a specific activity of 18.4 Ci/mmol was obtained.
Platelet membranes were prepared using a modification of the method of Natarajan et al. (Natarajan et al, Int. J. Peptide Protein Res. 45:145-151 (1995)) from 20 units of platelet concentrates obtained from the North Jersey Blood Center (East Orange, N.J.) within 48 hours of collection. All steps were carried out at 4° C. under approved biohazard safety conditions. Platelets were centrifuged at 100×g for 20 minutes at 4° C. to remove red cells. The supernatants were decanted and centrifuged at 3000×g for 15 minutes to pellet platelets. Platelets were re-suspended in 10 mM Tris-HCl, pH 7.5, 150 mM NaCl, 5 mM EDTA, to a total volume of 200 ml and centrifuged at 4400×G for 10 minutes. This step was repeated two additional times. […] Protein concentration was determined by a Lowry assay (Lowry et al., J. Biol. Chem., 193:265-275 (1951)). […]

thrombin receptor (PAR-1 receptor), sequence (P25116 22-425): as above

SMILES	Ki [nM]
C[C@H]1OC(=O)C2CC(F)(F)[C@@H](C)[C@H](/C=C/c3ccc(-c4cccc(F)c4)cn3)C21 (stereo partly shown) [Example 2]	3
C[C@H]1OC(=O)[C@]2(O)CC(F)(F)[C@@H](C)[C@H](/C=C/c3ccc(-c4cccc(F)c4)cn3)[C@H]12 [Example 10]	3
C[C@H]1OC(=O)[C@]2(C(=O)NCCO)CC(F)(F)[C@@H](C)[C@H](/C=C/c3ccc(-c4cccc(F)c4)cn3)[C@H]12 [Example 13]	3
